The results in this text go back to paper PMC3343029, “Crystal Structure of the Cysteine Desulfurase DndA from Streptomyces lividans Which Is Involved in DNA Phosphorothioation” (PLoS ONE, 2012).

The experiment deals with T1, DndA (Streptomyces lividans, UniProt A7TUX7, C344S).
T1 construct: full length residues 1-380, N-terminal His-tag (pET28a), expressed in E. coli BL21(DE3); homodimer; residues 2-359 in the model
Put plainly: X-ray crystallography, […] Å. The experiment is classed as binding. The settings on record: covalent; Schiff base with Lys200; crystals at pH 5.5 without L-cysteine.

T1 sequence (A7TUX7 entry or part of it C344S): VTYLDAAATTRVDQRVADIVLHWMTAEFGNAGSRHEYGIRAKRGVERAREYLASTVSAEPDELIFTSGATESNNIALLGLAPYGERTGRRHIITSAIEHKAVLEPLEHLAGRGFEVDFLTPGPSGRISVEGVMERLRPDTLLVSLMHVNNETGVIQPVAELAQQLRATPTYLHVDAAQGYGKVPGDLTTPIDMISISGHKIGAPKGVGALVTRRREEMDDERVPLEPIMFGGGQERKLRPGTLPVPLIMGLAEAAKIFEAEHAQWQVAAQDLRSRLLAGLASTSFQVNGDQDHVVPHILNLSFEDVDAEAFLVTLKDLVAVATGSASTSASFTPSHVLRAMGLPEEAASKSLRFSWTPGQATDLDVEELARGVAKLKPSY

On to `Cc1ncc(COP(=O)(O)O)c(C=O)c1O` [PLP], for which the “X-ray crystallography, 2.4 Å” value was “there is a PLP cofactor which forms a Schiff base covalent bond with the amino”.
